Measured values taken from patent US20230279025A1, “KRAS G12D INHIBITORS” (Mirati Therapeutics, Inc., priority 2020, published 2023).

Target: KRas G12D (Homo sapiens (Human), UniProt P01116, G12D)
Experiment: KRas G12D Binding Assay (TR-FRET displacement of Cy5 labelled tracer)
Details: GDP-loaded KRAS G12D (amino acids 1:169), 60 minute incubation at 22° C.
Procedure: After a 60 minute incubation at 22° C., the reaction was measured using a PerkinElmer EnVision multimode plate reader via TR-FRET dual wavelength detection, and the percent of control (POC) calculated using a ratiometric emission factor. […] The POC values were fit to a 4-parameter logistic curve and the IC50 value was determined as the concentration where the curve crosses 50 POC.
ND stands for “not determined.”

Sequence of KRas G12D (P01116 other isoform, or with tags, fused parts or gaps G12D): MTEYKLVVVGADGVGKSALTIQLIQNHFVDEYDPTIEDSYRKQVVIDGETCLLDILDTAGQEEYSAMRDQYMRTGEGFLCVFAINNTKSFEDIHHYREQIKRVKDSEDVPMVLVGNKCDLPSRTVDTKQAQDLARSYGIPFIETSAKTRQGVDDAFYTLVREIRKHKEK

`O=C(OC[C@H]1CC[C@@]2(COc3nc(N4CC5CCC(C4)N5)c4cnc(-c5cccc6cccc(Cl)c56)c(F)c4n3)CCCN12)N1CCOCC1` [Example 445, ((3R,7aR)-7a-(((4-(3,8-diazabicyclo[3.2.1]octan-3-yl)-7-(8-chloronaphthalen-1-yl)-8-fluoropyrido[4,3-d]pyrimidin-2-yl)oxy)methyl)hexahydro-1H-pyrrolizin-3-yl)methyl morpholine-4-carboxylate] was tested. Which IC50 did it give?
Its IC50 is 2.7 nM.

`Oc1ccc(OC(F)(F)F)c(-c2ncc3c(N4C[C@H]5CC[C@@H](C4)N5)nc(OCC45CCCN4CCC5)nc3c2F)c1` [Example 341, 3-(4-((1R,5S)-3,8-diazabicyclo[3.2.1]octan-3-yl)-8-fluoro-2-((tetrahydro-1H-pyrrolizin-7a(5H)-yl)methoxy)pyrido[4,3-d]pyrimidin-7-yl)-4-(trifluoromethoxy)phenol] was tested. Which IC50 did it give?
The IC50 was 0.7 nM.

With `Fc1c(-c2cccc(Cl)c2C2CC2)ncc2c(N3CC4CCC(C3)N4)nc(OCC34CCCN3C[C@H](F)C4)nc12` (mixture of isomers) [Example 342, 4-((1R,5S)-3,8-diazabicyclo[3.2.1]octan-3-yl)-7-(3-chloro-2-cyclopropylphenyl)-8-fluoro-2-((2-fluorotetrahydro-1H-pyrrolizin-7a(5H)-yl)methoxy)pyrido[4,3-d]pyrimidine (racemic, trans)] as the molecule, how does the IC50 read?
The IC50 was 3.4 nM.

`Fc1c(-c2c3ccccc3cc3[nH]ncc23)ncc2c(N3C[C@H]4CC[C@@H](C3)N4)nc(OCC34CCCN3CCC4)nc12` [Example 257, 4-(4-((1R,5S)-3,8-diazabicyclo[3.2.1]octan-3-yl)-8-fluoro-2-((hexahydro-1H-pyrrolizin-7a-yl)methoxy)pyrido[4,3-d]pyrimidin-7-yl)-1H-benzo[f]indazole] was tested. Which IC50 did it give?
The IC50 was 5.1 nM.

For `CNc1c(F)cccc1-c1ncc2c(N3C[C@H]4CC[C@@H](C3)N4)nc(OCC34CCCN3CCC4)nc2c1F` [Example 268, 2-(4-((1R,5S)-3,8-diazabicyclo[3.2.1]octan-3-yl)-8-fluoro-2-((hexahydro-1H-pyrrolizin-7a-yl)methoxy)pyrido[4,3-d]pyrimidin-7-yl)-6-fluoro-N-methylaniline], which IC50 is on record?
The IC50 was 1550 nM.

How did the IC50 turn out when `Fc1c(-c2cccc3cccc(-c4c[nH]nn4)c23)ncc2c(N3C[C@H]4CC[C@@H](C3)N4)nc(OCC34CCCN3CCC4)nc12` [Example 180, 7-(8-(1H-1,2,3-triazol-4-yl)naphthalen-1-yl)-4-((1R,5S)-3,8-diazabicyclo[3.2.1]octan-3-yl)-8-fluoro-2-((hexahydro-1H-pyrrolizin-7a-yl)methoxy)pyrido[4,3-d]pyrimidine] was run?
The IC50 was 76.1 nM.

With `CC1CCc2cccc(-c3ncc4c(N5CC6CCC(C5)N6)nc(OC[C@@]56CCCN5C[C@H](F)C6)nc4c3F)c21` (stereo partly drawn) [Example 429, 4-(3,8-diazabicyclo[3.2.1]octan-3-yl)-8-fluoro-2-(((2R,7aS)-2-fluorotetrahydro-1H-pyrrolizin-7a(5H)-yl)methoxy)-7-(3-methyl-2,3-dihydro-1H-inden-4-yl)pyrido[4,3-d]pyrimidine] as the molecule, how does the IC50 read?
The IC50 was 18.5 nM.

With `O[C@@H]1C[C@@H]2CN(c3nc(OCCn4ccnc4C(F)(F)F)nc4c(F)c(-c5cccc6cccc(Cl)c56)ncc34)C[C@H]1N2` [Example 169, (1R,5R,6R)-3-(7-(8-chloronaphthalen-1-yl)-8-fluoro-2-(2-(2-(trifluoromethyl)-1H-imidazol-1-yl)ethoxy)pyrido[4,3-d]pyrimidin-4-yl)-3,8-diazabicyclo[3.2.1]octan-6-ol] as the molecule, how does the IC50 read?
Its IC50 is 657 nM.

For `CCc1ccc(O)cc1-c1ncc2c(N3C[C@H]4CC[C@@H](C3)N4)nc(OCC34CCCN3CCC4)nc2c1F` [Example 263, 3-(4-((1R,5S)-3,8-diazabicyclo[3.2.1]octan-3-yl)-8-fluoro-2-((hexahydro-1H-pyrrolizin-7a-yl)methoxy)pyrido[4,3-d]pyrimidin-7-yl)-4-ethylphenol], which IC50 is on record?
Its IC50 is 1.5 nM.

`Cc1cc(-c2ncc3c(N4CC5CCC(C4)N5)nc(OC[C@@]45CCCN4C[C@H](F)C5)nc3c2F)c2cn[nH]c2c1` (stereo in doubt) [Example 391, 4-((1R,5S)-3,8-diazabicyclo[3.2.1]octan-3-yl)-8-fluoro-2-((2-fluorotetrahydro-1H-pyrrolizin-7a(5H)-yl)methoxy)-7-(6-methyl-1H-indazol-4-yl)pyrido[4,3-d]pyrimidine] was tested. Which IC50 did it give?
Its IC50 is 662 nM.

Which IC50 does the source give for `Fc1c(-c2cccc3cccc(Br)c23)ncc2c(N3C[C@H]4CC[C@@H](C3)N4)nc(OCC34CCCN3CCC4)nc12` [Example 235, 4-((1R,5S)-3,8-diazabicyclo[3.2.1]octan-3-yl)-7-(8-bromonaphthalen-1-yl)-8-fluoro-2-((tetrahydro-1H-pyrrolizin-7a(5H)-yl)methoxy)pyrido[4,3-d]pyrimidine] here?
Its IC50 is 1.2 nM.

With `Oc1cc(-c2ncc3c(N4CC5CCC(C4)N5)nc(OCC45CCCCN4CCC5)nc3c2F)c2ccccc2c1` (stereo not drawn) [Example 463, 4-(4-(3,8-diazabicyclo[3.2.1]octan-3-yl)-8-fluoro-2-((octahydroindolizin-8a-yl)methoxy)pyrido[4,3-d]pyrimidin-7-yl)naphthalen-2-ol] as the molecule, how does the IC50 read?
Its IC50 is 0.012 nM.

For `CC(C)Cc1ccccc1-c1ncc2c(N3CC4CCC(C3)N4)nc(OC[C@@]34CCCN3C[C@H](F)C4)nc2c1F` (stereo in doubt) [Example 417, 4-((1R,5S)-3,8-diazabicyclo[3.2.1]octan-3-yl)-8-fluoro-2-((2-fluorotetrahydro-1H-pyrrolizin-7a(5H)-yl)methoxy)-7-(2-isobutylphenyl)pyrido[4,3-d]pyrimidine], which IC50 is on record?
The IC50 was 595 nM.

Which IC50 does the source give for `CC#Cc1cccc2cccc(-c3ncc4c(N5C[C@H]6CC[C@@H](C5)N6)nc(OCC56CCCN5CCC6)nc4c3F)c12` [Example 195, 4-((1R,5S)-3,8-diazabicyclo[3.2.1]octan-3-yl)-8-fluoro-7-(8-(prop-1-yn-1-yl)naphthalen-1-yl)-2-((tetrahydro-1H-pyrrolizin-7a(5H)-yl)methoxy)pyrido[4,3-d]pyrimidine] here?
The IC50 was 20.7 nM.

Which IC50 does the source give for `CCCc1cccc2cccc(-c3ncc4c(N5C[C@H]6CC[C@@H](C5)N6)nc(OCC56CCCN5CCC6)nc4c3F)c12` [Example 254, 4-((1R,5S)-3,8-diazabicyclo[3.2.1]octan-3-yl)-8-fluoro-2-((hexahydro-1H-pyrrolizin-7a-yl)methoxy)-7-(8-propylnaphthalen-1-yl)pyrido[4,3-d]pyrimidine] here?
The IC50 was 6.1 nM.

How did the IC50 turn out when `OCc1cccc2cccc(-c3ncc4c(N5C[C@H]6CC[C@@H](C5)N6)nc(OCC56CCCN5CCC6)nc4c3F)c12` [Example 238, (8-(4-((1R,5S)-3,8-diazabicyclo[3.2.1]octan-3-yl)-8-fluoro-2-((tetrahydro-1H-pyrrolizin-7a(5H)-yl)methoxy)pyrido[4,3-d]pyrimidin-7-yl)naphthalen-1-yl)methanol] was run?
Its IC50 is 16.1 nM.

`CC(C)Oc1ccccc1-c1ncc2c(N3CC4CCC(C3)N4)nc(OC[C@@]34CCCN3C[C@H](F)C4)nc2c1F` (stereo in doubt) [Example 416, 4-((1R,5S)-3,8-diazabicyclo[3.2.1]octan-3-yl)-8-fluoro-2-((2-fluorotetrahydro-1H-pyrrolizin-7a(5H)-yl)methoxy)-7-(2-isopropoxyphenyl)pyrido[4,3-d]pyrimidine] was tested. Which IC50 did it give?
The IC50 was 1950 nM.

With `C#Cc1c(F)ccc2cccc(-c3ncc4c(N5C[C@H]6CC[C@@H](C5)N6)nc(OC[C@]56CCCN5[C@@H](COC(=O)N(C)C)CC6)nc4c3F)c12` [Example 439, ((3R,7aR)-7a-(((4-((1R,5S)-3,8-diazabicyclo[3.2.1]octan-3-yl)-7-(8-ethynyl-7-fluoronaphthalen-1-yl)-8-fluoropyrido[4,3-d]pyrimidin-2-yl)oxy)methyl)hexahydro-1H-pyrrolizin-3-yl)methyl dimethylcarbamate] as the molecule, how does the IC50 read?
The IC50 was 0.4 nM.

With `COC1(OC)CN2CCCC2(COc2nc(N3C[C@H]4CC[C@@H](C3)N4)c3cnc(-c4cccc5cccc(Cl)c45)c(F)c3n2)C1` (stereo partly drawn) [Example 404, 4-((1R,5S)-3,8-diazabicyclo[3.2.1]octan-3-yl)-7-(8-chloronaphthalen-1-yl)-2-((2,2-dimethoxytetrahydro-H-pyrrolizin-7a(5H)-yl)methoxy)-8-fluoropyrido[4,3-d]pyrimidine] as the molecule, how does the IC50 read?
Its IC50 is 60.8 nM.

For `C#Cc1cccc2cc(O)cc(-c3ncc4c(N5C[C@H]6CC[C@@H](C5)N6)ncnc4c3F)c12` [Example 244, 4-(4-((1R,5S)-3,8-diazabicyclo[3.2.1]octan-3-yl)-8-fluoropyrido[4,3-d]pyrimidin-7-yl)-5-ethynylnaphthalen-2-ol], which IC50 is on record?
Its IC50 is 4.2 nM.

How did the IC50 turn out when `CNc1nc(N2CC3CCC(C2)N3)c2cnc(-c3cc(O)cc4ccccc34)c(F)c2n1` [Example 183, 4-[4-(3,8-diazabicyclo[3.2.1]octan-3-yl)-8-fluoro-2-(methylamino)pyrido[4,3-d]pyrimidin-7-yl]naphthalen-2-ol] was run?
The IC50 was 393 nM.

`C#Cc1cccc2cccc(-c3ncc4c(N5C[C@H]6CC[C@@H](C5)N6)nc(OC[C@]56CCCN5C[C@@H](F)C6)nc4c3F)c12` [Example 205, 4-((1R,5S)-3,8-diazabicyclo[3.2.1]octan-3-yl)-7-(8-ethynylnaphthalen-1-yl)-8-fluoro-2-(((2S,7aR)-2-fluorotetrahydro-1H-pyrrolizin-7a(5H)-yl)methoxy)pyrido[4,3-d]pyrimidine] was tested. Which IC50 did it give?
The IC50 was 1.2 nM.

How did the IC50 turn out when `Oc1ccc(C(F)(F)F)c(-c2ncc3c(N4C[C@H]5CC[C@@H](C4)N5)nc(OCC45CCCN4CCC5)nc3c2F)c1` [Example 373, 3-(4-((1R,5S)-3,8-diazabicyclo[3.2.1]octan-3-yl)-8-fluoro-2-((tetrahydro-1H-pyrrolizin-7a(5H)-yl)methoxy)pyrido[4,3-d]pyrimidin-7-yl)-4-(trifluoromethyl)phenol] was run?
The IC50 was 1.6 nM.

For `CN1CCC[C@H]1COc1nc(N2CC3C[C@@H](O)C(C2)N3)c2cnc(-c3cc(O)cc4ccccc34)c(F)c2n1` (stereo partly drawn) [Example 31, 3-(8-fluoro-7-(3-hydroxynaphthalen-1-yl)-2-(((S)-1-methylpyrrolidin-2-yl)methoxy)pyrido[4,3-d]pyrimidin-4-yl)-3,8-diazabicyclo[3.2.1]octan-6-ol], which IC50 is on record?
The IC50 was 1.6 nM.
